How the values were obtained:
NK2 receptor = target: T1, NK2 receptor (Homo sapiens, UniProt P21452); experiment: neurokinin receptor binding assay, NK2 (Ki); settings: read-out: Ki (NK2)
T1 sequence (P21452 1-398): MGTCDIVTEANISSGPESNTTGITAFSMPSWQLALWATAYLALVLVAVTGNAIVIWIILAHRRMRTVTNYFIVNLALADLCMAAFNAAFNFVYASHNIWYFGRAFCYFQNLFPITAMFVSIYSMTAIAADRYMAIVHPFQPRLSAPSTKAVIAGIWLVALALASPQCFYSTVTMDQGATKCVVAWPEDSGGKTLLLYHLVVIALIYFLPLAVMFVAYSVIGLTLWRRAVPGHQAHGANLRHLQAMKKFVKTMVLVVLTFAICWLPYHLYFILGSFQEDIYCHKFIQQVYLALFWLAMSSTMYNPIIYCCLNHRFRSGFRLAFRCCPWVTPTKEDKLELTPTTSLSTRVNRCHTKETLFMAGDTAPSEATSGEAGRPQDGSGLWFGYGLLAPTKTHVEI
Source text: (§1) The in vitro and in vivo activity of the compounds of formula I can be determined by various procedures known in the art, such as a test for their ability to inhibit the activity of the NK1 agonist Substance P, an isolated hamster trachea NK2 assay, a test of the effect of NK1 antagonists on Substance P-induced airway microvascular leakage, measurement of NK2 activity in vivo in guinea pigs, measurement of bronchoconstriction due to NKA, and neurokinin receptor binding assay(s). Typical procedures are described in WO96/34857, published Nov. 7, 1996. NK3 activity is determined by following a procedure similar to that described in the literature, e.g., Molecular Pharmacol., 48 (1995), p. 711-716.
(§2) % Inhibition is the difference between the percent of maximum specific binding (MSB) and 100%. The percent of MSB is defined by the following equation, wherein "dpm" is disintegrations per minute: [formula]
(§3) Using the test procedures described above, the following 35 data (Ki) were obtained for exemplified compounds: […]

NK1 receptor = NK1 receptor (Homo sapiens, UniProt P25103); experiment: neurokinin receptor binding assay, NK1 (Ki); settings: read-out: Ki (NK1)
Chain of NK1 receptor (P25103 whole entry): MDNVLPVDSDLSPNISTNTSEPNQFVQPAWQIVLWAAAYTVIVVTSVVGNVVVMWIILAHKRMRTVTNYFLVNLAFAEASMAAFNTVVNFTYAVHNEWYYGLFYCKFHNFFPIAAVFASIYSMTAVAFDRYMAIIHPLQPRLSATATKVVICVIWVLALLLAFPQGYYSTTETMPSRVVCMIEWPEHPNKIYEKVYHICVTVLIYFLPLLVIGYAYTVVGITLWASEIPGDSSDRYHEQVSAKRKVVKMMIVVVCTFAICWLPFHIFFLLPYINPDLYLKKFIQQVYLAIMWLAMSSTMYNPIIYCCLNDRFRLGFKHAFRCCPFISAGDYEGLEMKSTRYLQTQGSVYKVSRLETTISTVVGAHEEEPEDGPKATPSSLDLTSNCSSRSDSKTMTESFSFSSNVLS
Source text: as §1, §2, §3

| SMILES | Ki (NK2 receptor) | Ki (NK1 receptor) |
| --- | --- | --- |
| CON=C(CN(C)C(=O)c1cc(Cl)cc(Cl)c1)C(CCN1CCC(N2CCCC(CC(=O)N3CCCC3)C2=O)CC1)c1ccc(Cl)c(Cl)c1 (stereo not drawn) [Example 12F] | 0.8 nM | 0.6 nM |
| CCN(CC(=NOC)C(CCN1CCC(N2CCCC(CC(=O)NC)C2=O)CC1)c1ccc(Cl)c(Cl)c1)C(=O)c1cc(Cl)cc(Cl)c1 (stereo not drawn) [Example 28B] | 1 nM | 0.8 nM |
| CON=C(CN(C)C(=O)c1cc(C)cc(Cl)c1)C(CCN1CCC(N2CCCCC2=O)CC1)c1ccc(Cl)c(Cl)c1 (stereo not drawn) [Example 26] | 1.3 nM | 1 nM |
| CNC(=O)CC1CCCN(C2CCN(CCC(C(CN(C)C(=O)c3cc(Cl)cc(Cl)c3)=NO)c3ccc(Cl)c(Cl)c3)CC2)C1=O (stereo not drawn) [Example 15A] | 0.7 nM | 0.2 nM |
| CON=C(CN(C)C(=O)c1cc(Cl)cc(Cl)c1)C(CCN1CCC(c2ccccc2[S+](C)[O-])CC1)c1ccc(Cl)c(Cl)c1 (stereo not drawn) [Example 36] | 1 nM | 0.8 nM |
| Cc1cc(C)cc(C(=O)N(C)CC(=NOCC(=O)N2CCSCC2)C(CCN2CCC(N3CCCCC3=O)CC2)c2ccc(Cl)c(Cl)c2)c1 (stereo not drawn) [Example 18J] | 3.4 nM | 0.3 nM |

More lines, in order of falling Ki (NK2 receptor), values ahead:

| Ki (NK2 receptor) | Ki (NK1 receptor) | SMILES |
| --- | --- | --- |
| 0.7 nM | 1.1 nM | CON=C(CN(C)C(=O)c1cc(Cl)cc(Cl)c1)[C@H](CCN1CCC(N2CCCCC2=O)CC1)c1ccc(Cl)c(Cl)c1 [Example 13D] |
| 0.5 nM | 0.4 nM | CNC(=O)CC1CCCN(C2CCN(CCC(C(CN(C)C(=O)c3cc(Cl)cc(Cl)c3)=NOCC(N)=O)c3ccc(Cl)c(Cl)c3)CC2)C1=O (stereo not drawn) [Example 15D] |
| 0.4 nM | 0.4 nM | Cc1cc(C)cc(C(=O)N(C)CC(=NOCC#N)C(CCN2CCC(N3CCCCC3=O)CC2)c2ccc(Cl)c(Cl)c2)c1 (stereo not drawn) [Example 18D] |
| 0.4 nM | 0.4 nM | Cc1cc(C)cc(C(=O)N(C)CC(=NOCC(N)=NO)C(CCN2CCC(N3CCCCC3=O)CC2)c2ccc(Cl)c(Cl)c2)c1 (stereo not drawn) [Example 18E] |
| 0.4 nM | 0.2 nM | CNC(=O)CC1CCCN(C2CCN(CCC(C(CN(C)C(=O)c3cc(Cl)cc(Cl)c3)=NOCCCS(=O)(=O)O)c3ccc(Cl)c(Cl)c3)CC2)C1=O (stereo not drawn) [Example 15H] |
| 0.2 nM | 0.3 nM | CN(C)C(=O)CC1CCCN(C2CCN(CCC(C(CN(C)C(=O)c3cc(Cl)cc(Cl)c3)=NOCC(N)=NO)c3ccc(Cl)c(Cl)c3)CC2)C1=O (stereo not drawn) [Example 14D] |
